Measured values published in patent EP0714912B1, “GMP-140 ligand” (THE BOARD OF REGENTS OF THE UNIVERSITY OF OKLAHOMA, priority 1990, dated 1992).

Tested on: immobilized GMP-140
Assay: ELISA (avidin detection) of binding of biotinylated monoclonal antibodies G1, G2, G3 to immobilized GMP-140 in presence of soluble peptide
Design: species or system human
Details: for % Binding of Biotinylated MAbs G1: peptide 1.5 mM added to biotinylated mAb G1 (2.5 micrograms/ml) before addition to immobilized GMP-140; for % Binding of Biotinylated MAbs G2: peptide 1.5 mM added to biotinylated mAb G2 (2.5 micrograms/ml) before addition to immobilized GMP-140; for % Binding of Biotinylated MAbs G3: peptide 1.5 mM added to biotinylated mAb G3 (2.5 micrograms/ml) before addition to immobilized GMP-140
Experimental: Based on competitive ELISAs with the purified protein, G1, G2, and G3 each recognize distinct or only partially overlapping epitopes. 1.5 mM peptide was added to biotinylated mAb at a concentration of 2.5 micrograms/ml, which were then added to the wells containing GMP-140, as described in example 1. Binding was measured by an ELISA with an avidin detection system.
The monoclonal antibodies were biotinylated as follows: to 0.5 ml of purified IgG antibody (1 mg/ml in PBS, pH 7.4) was added 50 µl of 3.2 mM N-hydroxysuccinimide biotin in dimethyl sulfoxide and 50 µl of 1 M NaHCO3. After a 2 hour incubation at room temperature in the dark, the reaction was stopped with 50 µl of 1 M NH4Cl. The biotinylated antibody was then separated from other components by gel filtration on a PD-10 column equilibrated in PBS. The ELISA was performed as follows; all steps were performed at room temperature.
Biotinylated antibody (2.5 µg/ml) with or without 1.5 mM peptide was incubated with wells coated with GMP-140 as described in example 1. After a 2 hour incubation, the antibody was removed, the wells were washed, and 0.1 ml of horseradish peroxidase-conjugated stepavidin (Pierce), diluted 1:1,000 in HBSS/HSA, was added for 30 min. The wells were then washed and 0.1 ml of peroxidase substrate (Pierce) was added for 15 min. The color reaction was read at 405 nm.

Substance: LECTIN/EGF 118-126: synthetic peptide, amino acids 118-126 of GMP-140 (lectin/EGF domains) (YTASCQDMS; UniProt P16109 159-167, looked up, fragment)
- % Binding of Biotinylated MAbs G1: 92%
- % Binding of Biotinylated MAbs G2: 92%
- % Binding of Biotinylated MAbs G3: 104%

Substance: EGF 145-158: synthetic peptide, amino acids 145-158 of the EGF domain of GMP-140 (YPGFYGPECEYVRE; UniProt P16109 186-199, looked up, fragment)
- % Binding of Biotinylated MAbs G1: 94%
- % Binding of Biotinylated MAbs G2: 92%
- % Binding of Biotinylated MAbs G3: 108%

Substance: EGF 128-132: synthetic peptide, amino acids 128-132 of the EGF domain of GMP-140 (SKQGE; UniProt P16109 169-173, looked up, fragment)
- % Binding of Biotinylated MAbs G1: 107%
- % Binding of Biotinylated MAbs G2: 92%
- % Binding of Biotinylated MAbs G3: 104%

Substance: LECTIN 19-30: synthetic peptide, amino acids 19-30 of the lectin domain of GMP-140 (CQNRYTDLVAIQ; UniProt P16109 60-71, looked up, fragment)
- % Binding of Biotinylated MAbs G3: 54%

Substance: C-TERMINUS 761-777: C-terminal peptide (amino acid residues 761-777 of GMP-140) as a negative control (KDDGKCPLNPHSHLGTY; UniProt P16109 802-818, looked up, fragment) [reference compound]
- % Binding of Biotinylated MAbs G1: 100%
- % Binding of Biotinylated MAbs G2: 100%
- % Binding of Biotinylated MAbs G3: 100%

Substance: LECTIN 91-108: synthetic peptide, amino acids 91-108 of the lectin domain of GMP-140 (VEIYIKSPSAPGKWNDEH; UniProt P16109 132-149, looked up, fragment)
- % Binding of Biotinylated MAbs G1: 97%
- % Binding of Biotinylated MAbs G2: 93%
- % Binding of Biotinylated MAbs G3: 96%

Substance: REPEATS 544-556: control peptide from one of the consensus repeats of GMP-140, amino acids 544-556
- % Binding of Biotinylated MAbs G1: 107%
- % Binding of Biotinylated MAbs G2: 96%
- % Binding of Biotinylated MAbs G3: 111%

Substance: TRANSMEMBRANE 755-761: control peptide from the transmembrane region of GMP-140, amino acids 755-761 (RKRFRQK; UniProt P16109 796-802, looked up, fragment)
- % Binding of Biotinylated MAbs G1: 100%
- % Binding of Biotinylated MAbs G2: 119%
- % Binding of Biotinylated MAbs G3: 104%

Substance: EGF 134-141: synthetic peptide, amino acids 134-141 of the EGF domain of GMP-140 (LETIGNYT; UniProt P16109 175-182, looked up, fragment)
- % Binding of Biotinylated MAbs G1: 97%
- % Binding of Biotinylated MAbs G2: 104%
- % Binding of Biotinylated MAbs G3: 109%

Substance: LECTIN 110-116: synthetic peptide, amino acids 110-116 of the lectin domain of GMP-140 (LKKKHAL; UniProt P16109 151-157, looked up, fragment)
- % Binding of Biotinylated MAbs G1: 98%
- % Binding of Biotinylated MAbs G2: 100%
- % Binding of Biotinylated MAbs G3: 108%
